# Measured values from article PMC10507085, “Pharmacological inhibition of TBK1/IKKε blunts immunopathology in a murine model of SARS-CoV-2 infection” (Nature Communications, 2023).
# Tests used:
# Experiment in all cases: biochemical
# Design in all cases: KINOMEscan competition binding, DNA-tagged kinase against immobilised ligand, qPCR read-out
# Settings in all cases: read-out: Percent Control
# [1] = molecular target: CAMK4 (Homo sapiens, UniProt Q16566)
# [2] = molecular target: CDK4 (Homo sapiens, UniProt P11802)
# Sequence of CDK4 (P11802 whole entry): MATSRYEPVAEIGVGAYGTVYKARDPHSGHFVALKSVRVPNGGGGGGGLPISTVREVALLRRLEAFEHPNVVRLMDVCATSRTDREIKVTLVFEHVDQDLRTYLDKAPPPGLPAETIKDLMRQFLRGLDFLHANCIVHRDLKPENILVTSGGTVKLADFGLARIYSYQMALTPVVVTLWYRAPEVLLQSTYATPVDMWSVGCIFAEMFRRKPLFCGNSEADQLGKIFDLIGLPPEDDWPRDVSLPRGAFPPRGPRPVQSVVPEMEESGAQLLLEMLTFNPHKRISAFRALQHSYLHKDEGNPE
# [3] = molecular target: CHEK2 (Homo sapiens, UniProt O96017)
# [4] = molecular target: EIF2AK2 (Homo sapiens, UniProt P19525)
# [5] = molecular target: GRK7 (Homo sapiens, UniProt Q8WTQ7)
# Sequence of GRK7 (Q8WTQ7 whole entry): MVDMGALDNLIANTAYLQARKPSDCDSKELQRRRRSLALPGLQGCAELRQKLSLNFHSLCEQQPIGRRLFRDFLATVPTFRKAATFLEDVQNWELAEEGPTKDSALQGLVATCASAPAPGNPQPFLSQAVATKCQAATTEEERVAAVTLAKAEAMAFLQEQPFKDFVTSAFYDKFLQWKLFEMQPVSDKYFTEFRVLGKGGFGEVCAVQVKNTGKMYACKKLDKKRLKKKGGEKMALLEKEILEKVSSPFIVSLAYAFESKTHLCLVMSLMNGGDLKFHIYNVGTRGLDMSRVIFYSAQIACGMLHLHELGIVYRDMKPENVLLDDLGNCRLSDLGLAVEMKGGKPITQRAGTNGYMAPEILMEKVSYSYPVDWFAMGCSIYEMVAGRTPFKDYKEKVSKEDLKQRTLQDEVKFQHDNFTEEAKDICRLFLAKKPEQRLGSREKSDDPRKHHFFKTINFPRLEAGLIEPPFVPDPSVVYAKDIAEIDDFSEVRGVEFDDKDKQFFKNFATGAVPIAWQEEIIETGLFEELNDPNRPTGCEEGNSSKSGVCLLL
# [6] = molecular target: T1, GSG2 (Homo sapiens, UniProt Q8TF76)
# T1 construct: gene HASPIN
# T1 sequence (Q8TF76 whole entry): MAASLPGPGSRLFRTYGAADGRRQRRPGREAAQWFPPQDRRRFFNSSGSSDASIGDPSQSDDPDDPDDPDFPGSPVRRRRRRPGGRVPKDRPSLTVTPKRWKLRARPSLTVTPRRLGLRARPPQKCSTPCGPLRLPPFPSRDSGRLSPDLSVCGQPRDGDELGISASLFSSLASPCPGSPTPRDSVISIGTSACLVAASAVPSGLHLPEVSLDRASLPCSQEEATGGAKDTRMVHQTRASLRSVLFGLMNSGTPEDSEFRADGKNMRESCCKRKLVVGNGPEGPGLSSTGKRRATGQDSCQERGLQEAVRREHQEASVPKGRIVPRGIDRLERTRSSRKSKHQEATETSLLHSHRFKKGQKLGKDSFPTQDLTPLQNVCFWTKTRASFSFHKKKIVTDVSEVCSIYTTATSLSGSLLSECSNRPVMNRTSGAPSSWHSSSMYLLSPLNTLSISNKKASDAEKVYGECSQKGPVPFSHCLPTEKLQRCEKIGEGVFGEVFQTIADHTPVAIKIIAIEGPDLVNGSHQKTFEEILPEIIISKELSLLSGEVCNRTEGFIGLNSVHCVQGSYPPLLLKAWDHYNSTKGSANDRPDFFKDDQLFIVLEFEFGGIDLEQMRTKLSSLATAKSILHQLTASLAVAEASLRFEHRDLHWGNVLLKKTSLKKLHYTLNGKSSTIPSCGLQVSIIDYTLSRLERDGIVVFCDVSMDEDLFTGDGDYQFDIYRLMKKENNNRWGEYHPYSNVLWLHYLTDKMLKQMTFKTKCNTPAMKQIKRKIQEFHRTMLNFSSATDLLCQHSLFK
# [7] = molecular target: T2, ICK (Homo sapiens, UniProt Q9UPZ9)
# T2 construct: gene CILK1
# [8] = molecular target: T3, JAK1(JH1domain-catalytic) (Homo sapiens, UniProt P23458)
# T3 construct: JH1 domain catalytic
# [9] = molecular target: MAP3K13 (Homo sapiens, UniProt O43283)
# [10] = molecular target: MARK3 (Homo sapiens, UniProt P27448)
# [11] = molecular target: NEK2 (Homo sapiens, UniProt P51955)
# [12] = molecular target: PIK3CA (Homo sapiens, UniProt P42336)
# Sequence of PIK3CA (P42336 whole entry): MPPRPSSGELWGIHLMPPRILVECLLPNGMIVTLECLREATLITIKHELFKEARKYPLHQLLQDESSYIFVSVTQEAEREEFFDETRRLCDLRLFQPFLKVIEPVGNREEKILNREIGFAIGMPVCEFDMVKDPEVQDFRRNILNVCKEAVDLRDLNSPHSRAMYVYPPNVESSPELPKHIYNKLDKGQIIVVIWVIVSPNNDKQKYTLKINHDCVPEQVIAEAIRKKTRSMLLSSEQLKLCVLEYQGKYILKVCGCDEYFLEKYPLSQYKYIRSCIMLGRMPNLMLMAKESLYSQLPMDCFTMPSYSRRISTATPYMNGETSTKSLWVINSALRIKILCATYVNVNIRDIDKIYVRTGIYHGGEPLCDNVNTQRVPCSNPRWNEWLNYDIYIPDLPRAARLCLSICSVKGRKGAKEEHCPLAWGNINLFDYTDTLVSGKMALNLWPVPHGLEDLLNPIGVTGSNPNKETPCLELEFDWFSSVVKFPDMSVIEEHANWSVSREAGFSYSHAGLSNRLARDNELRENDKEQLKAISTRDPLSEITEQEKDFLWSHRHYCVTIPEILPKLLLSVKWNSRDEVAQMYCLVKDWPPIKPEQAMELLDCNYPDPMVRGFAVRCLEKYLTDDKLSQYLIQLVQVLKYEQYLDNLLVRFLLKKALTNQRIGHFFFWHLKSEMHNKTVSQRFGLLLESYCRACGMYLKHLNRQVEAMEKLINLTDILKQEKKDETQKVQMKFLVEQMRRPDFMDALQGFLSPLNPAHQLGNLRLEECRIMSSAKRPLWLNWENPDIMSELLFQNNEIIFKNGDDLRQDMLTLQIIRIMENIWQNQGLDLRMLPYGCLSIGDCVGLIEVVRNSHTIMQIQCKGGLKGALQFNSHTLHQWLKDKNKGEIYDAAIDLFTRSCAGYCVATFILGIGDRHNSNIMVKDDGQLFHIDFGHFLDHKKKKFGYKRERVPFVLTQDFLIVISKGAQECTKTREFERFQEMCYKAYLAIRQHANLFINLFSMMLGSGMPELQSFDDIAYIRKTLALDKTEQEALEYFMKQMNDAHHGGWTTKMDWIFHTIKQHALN
# [13] = molecular target: PRKCI (Homo sapiens, UniProt P41743)
# Sequence of PRKCI (P41743 whole entry): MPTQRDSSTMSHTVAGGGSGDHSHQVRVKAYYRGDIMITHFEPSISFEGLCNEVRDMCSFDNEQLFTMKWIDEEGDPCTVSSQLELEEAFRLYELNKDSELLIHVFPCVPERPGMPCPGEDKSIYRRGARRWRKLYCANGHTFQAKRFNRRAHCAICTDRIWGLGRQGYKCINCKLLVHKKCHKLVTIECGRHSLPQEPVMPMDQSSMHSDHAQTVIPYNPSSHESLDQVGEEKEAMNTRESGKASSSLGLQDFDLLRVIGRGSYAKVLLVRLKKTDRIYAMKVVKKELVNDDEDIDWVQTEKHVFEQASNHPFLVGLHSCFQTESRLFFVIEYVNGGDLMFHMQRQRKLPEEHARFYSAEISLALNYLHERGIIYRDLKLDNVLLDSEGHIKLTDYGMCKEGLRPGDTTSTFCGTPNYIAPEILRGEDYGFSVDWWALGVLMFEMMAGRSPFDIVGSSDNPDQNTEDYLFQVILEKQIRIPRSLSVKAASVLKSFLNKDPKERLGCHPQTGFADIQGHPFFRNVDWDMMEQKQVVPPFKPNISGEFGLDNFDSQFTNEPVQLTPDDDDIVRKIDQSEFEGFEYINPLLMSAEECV
# [14] = molecular target: RIPK4 (Homo sapiens, UniProt P57078)
# [15] = molecular target: T4, RSK1(Kin.Dom.2-C-terminal) (Homo sapiens, UniProt Q15418)
# T4 construct: gene RPS6KA1; Kin.Dom.2 C-terminal
# [16] = molecular target: SRC (Homo sapiens, UniProt P12931)
# Sequence of SRC (P12931 whole entry): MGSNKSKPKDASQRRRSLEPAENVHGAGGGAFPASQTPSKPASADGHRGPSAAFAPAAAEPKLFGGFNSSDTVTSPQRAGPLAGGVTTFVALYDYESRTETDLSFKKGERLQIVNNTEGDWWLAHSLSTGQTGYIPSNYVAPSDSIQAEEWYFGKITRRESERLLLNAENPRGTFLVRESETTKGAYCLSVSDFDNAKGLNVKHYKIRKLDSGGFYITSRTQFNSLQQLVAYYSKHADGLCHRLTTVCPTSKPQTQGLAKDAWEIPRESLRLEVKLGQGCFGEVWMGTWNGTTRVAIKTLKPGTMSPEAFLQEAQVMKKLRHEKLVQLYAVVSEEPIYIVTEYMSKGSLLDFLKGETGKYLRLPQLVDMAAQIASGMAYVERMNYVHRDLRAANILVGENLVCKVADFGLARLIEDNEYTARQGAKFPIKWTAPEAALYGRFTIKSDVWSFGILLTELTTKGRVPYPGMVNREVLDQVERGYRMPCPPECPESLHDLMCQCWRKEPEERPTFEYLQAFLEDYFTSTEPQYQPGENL
# [17] = molecular target: SRMS (Homo sapiens, UniProt Q9H3Y6)
# [18] = molecular target: SRPK2 (Homo sapiens, UniProt P78362)
# Sequence of SRPK2 (P78362 whole entry): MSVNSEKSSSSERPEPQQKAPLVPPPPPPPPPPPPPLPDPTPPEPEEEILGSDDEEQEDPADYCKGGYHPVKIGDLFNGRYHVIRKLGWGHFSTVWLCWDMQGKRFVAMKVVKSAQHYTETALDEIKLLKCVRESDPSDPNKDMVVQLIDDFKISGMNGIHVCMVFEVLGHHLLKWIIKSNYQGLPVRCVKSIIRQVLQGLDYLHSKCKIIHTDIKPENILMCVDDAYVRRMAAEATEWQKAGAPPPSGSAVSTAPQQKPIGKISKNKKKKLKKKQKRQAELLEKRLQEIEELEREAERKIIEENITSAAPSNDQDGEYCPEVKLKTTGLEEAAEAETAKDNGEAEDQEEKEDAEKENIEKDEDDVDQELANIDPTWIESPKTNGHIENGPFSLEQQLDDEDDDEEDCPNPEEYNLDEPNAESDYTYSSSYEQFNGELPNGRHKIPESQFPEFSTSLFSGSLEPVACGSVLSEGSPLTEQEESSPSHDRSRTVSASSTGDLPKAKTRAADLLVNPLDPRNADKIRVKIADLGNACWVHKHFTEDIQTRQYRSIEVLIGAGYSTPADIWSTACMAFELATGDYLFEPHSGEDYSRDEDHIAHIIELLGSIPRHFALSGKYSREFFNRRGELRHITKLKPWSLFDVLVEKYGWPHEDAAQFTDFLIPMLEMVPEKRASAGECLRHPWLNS
# [19] = molecular target: SYK (Homo sapiens, UniProt P43405)
# [20] = molecular target: TIE1 (Homo sapiens, UniProt P35590)
# Sequence of CAMK4 (Q16566 whole entry): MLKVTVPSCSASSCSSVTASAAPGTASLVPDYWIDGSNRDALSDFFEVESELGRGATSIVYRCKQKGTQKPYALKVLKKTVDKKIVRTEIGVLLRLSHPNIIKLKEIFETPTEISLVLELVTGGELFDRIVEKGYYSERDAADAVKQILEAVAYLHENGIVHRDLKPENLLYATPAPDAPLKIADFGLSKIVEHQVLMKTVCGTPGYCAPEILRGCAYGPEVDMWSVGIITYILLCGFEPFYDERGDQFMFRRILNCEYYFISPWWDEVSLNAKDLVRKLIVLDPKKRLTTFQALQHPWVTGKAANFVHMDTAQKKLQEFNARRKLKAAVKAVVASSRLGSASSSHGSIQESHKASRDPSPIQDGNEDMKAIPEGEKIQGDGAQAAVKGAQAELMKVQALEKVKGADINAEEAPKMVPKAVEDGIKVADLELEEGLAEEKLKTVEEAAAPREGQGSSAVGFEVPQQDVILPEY
structure (smiles),measurement,setting,value
"Oc1ccc(C2=Cc3ccc(O)cc3OC2)cc1 [compound 1, idronoxil]",remaining binding at 10 µM,[1],100%
same,remaining binding at 10 µM,[2],100%
same,remaining binding at 10 µM,[3],67%
same,remaining binding at 10 µM,[4],85%
same,remaining binding at 10 µM,[5],100%
same,remaining binding at 10 µM,[6],5.3%
same,remaining binding at 10 µM,[7],100%
same,remaining binding at 10 µM,[8],93%
same,remaining binding at 10 µM,[9],84%
same,remaining binding at 10 µM,[10],100%
same,remaining binding at 10 µM,[11],100%
same,remaining binding at 10 µM,[12],89%
same,remaining binding at 10 µM,[13],70%
same,remaining binding at 10 µM,[14],73%
same,remaining binding at 10 µM,[15],69%
same,remaining binding at 10 µM,[16],47%
same,remaining binding at 10 µM,[17],68%
same,remaining binding at 10 µM,[18],99%
same,remaining binding at 10 µM,[19],62%
same,remaining binding at 10 µM,[20],84%
